Values quoted from earlier work, collected in US20130338095A1, “Chemosensory Receptor Ligand-Based Therapies” (ELCELYX THERAPEUTICS, INC., priority 2010, published 2013).

How the values were obtained:
[1] = bitter phytonutrients in common plant foods
sweet receptor = target: T1, sweet receptor (Homo sapiens, UniProt Q7RTX0+Q8TE23); settings: relative sweetness on a weight comparison basis to sucrose (=1.0)
T1 sequence (Q8TE23 20-839): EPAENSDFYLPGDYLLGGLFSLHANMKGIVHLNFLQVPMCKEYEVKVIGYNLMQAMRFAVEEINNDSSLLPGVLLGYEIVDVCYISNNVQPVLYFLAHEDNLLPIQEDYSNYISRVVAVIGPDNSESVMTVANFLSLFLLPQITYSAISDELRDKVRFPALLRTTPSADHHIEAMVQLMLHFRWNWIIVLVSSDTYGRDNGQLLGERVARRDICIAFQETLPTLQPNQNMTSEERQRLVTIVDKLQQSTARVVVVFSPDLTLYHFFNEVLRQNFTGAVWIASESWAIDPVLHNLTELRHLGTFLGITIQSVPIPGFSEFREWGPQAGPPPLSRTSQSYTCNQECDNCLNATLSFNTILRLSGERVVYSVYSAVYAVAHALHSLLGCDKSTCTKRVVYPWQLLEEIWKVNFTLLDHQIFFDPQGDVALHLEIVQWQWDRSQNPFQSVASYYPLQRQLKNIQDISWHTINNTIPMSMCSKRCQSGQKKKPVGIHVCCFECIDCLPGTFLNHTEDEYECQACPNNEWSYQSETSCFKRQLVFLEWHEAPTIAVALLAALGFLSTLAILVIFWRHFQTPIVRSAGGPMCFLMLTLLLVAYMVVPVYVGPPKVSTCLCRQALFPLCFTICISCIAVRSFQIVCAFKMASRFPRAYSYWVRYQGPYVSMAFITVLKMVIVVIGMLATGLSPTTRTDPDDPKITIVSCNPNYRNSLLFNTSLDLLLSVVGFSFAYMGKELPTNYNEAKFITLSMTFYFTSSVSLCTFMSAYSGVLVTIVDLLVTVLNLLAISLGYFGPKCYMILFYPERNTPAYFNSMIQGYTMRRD
T1 sequence (Q7RTX0 21-852): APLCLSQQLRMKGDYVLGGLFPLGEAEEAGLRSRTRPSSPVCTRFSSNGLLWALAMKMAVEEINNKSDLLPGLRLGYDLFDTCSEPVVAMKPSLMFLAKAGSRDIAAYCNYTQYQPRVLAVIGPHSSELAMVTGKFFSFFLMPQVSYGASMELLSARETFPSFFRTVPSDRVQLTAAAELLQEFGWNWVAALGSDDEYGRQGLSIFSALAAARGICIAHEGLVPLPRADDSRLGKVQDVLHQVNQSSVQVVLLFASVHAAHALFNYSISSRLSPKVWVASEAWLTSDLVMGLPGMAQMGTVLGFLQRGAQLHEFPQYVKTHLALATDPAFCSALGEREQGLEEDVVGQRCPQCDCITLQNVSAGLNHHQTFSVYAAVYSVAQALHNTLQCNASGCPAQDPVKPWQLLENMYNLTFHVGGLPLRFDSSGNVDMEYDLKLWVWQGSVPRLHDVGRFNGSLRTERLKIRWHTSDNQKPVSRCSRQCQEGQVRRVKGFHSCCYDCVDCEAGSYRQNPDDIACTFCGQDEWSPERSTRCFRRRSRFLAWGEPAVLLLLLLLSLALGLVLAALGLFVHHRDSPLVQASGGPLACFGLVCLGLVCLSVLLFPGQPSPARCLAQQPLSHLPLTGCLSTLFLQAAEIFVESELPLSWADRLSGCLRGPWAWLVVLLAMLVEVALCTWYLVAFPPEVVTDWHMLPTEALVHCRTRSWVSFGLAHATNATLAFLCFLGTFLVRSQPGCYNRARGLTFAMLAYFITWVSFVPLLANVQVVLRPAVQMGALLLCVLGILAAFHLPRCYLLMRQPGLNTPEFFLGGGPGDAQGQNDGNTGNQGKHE

Compound	Taste quality [1]	Sweetness/potency (sweet receptor)
COc1ccc(-c2cc(=O)c3c(OC)c(OC)c(OC)cc3o2)cc1OC [Sinensetin]	Bitter	–
C=CCC(=NOS(=O)(=O)O)S[C@@H]1O[C@H](CO)[C@@H](O)[C@H](O)[C@H]1O (stereo in doubt) [Sinigrin]	Bitter	–
O=c1c(-c2ccc(O)cc2)coc2cc(O[C@@H]3O[C@H](CO)[C@@H](O)[C@H](O)[C@H]3O)ccc12 [Daidzin]	Astringent	–
C[C@@H]1O[C@@H](O[C@H]2[C@H](Oc3cc(O)c4c(c3)O[C@H](c3ccc(O)cc3)CC4=O)O[C@H](CO)[C@@H](O)[C@@H]2O)[C@H](O)[C@H](O)[C@H]1O [Naringin]	Bitter	–
CC(=O)O[C@H]1CC(=O)OC(C)(C)[C@@H]2CC(=O)[C@]3(C)[C@H](CC[C@@]4(C)[C@H](c5ccoc5)OC(=O)[C@H]5O[C@]543)[C@@]12C [Nomilin]	Bitter	–
C=C[C@H](O)CC(=NOS(=O)(=O)O)S[C@@H]1O[C@H](CO)[C@@H](O)[C@H](O)[C@H]1O [Progoitrin]	Bitter	–
O=c1c(-c2ccc(O)cc2)coc2cc(O)cc(O)c12 [Genistein]	Bitter or astringent	–
C[S+]([O-])CCCN=C=S (stereo not shown) [3-Methyl-sulfinylpropyl isothiocyanate]	Acrid mustard oils	–
COc1ccc(-c2cc(=O)c3c(OC)c(OC)c(OC)c(OC)c3o2)cc1 [Tangeretin]	Bitter	–
Curculin	–	550
C=C1C[C@@]23CC[C@H]4[C@@](C)(CCC[C@@]4(C)C(=O)O[C@@H]4O[C@H](CO)[C@@H](O)[C@H](O)[C@H]4O)[C@@H]2CC[C@]1(O[C@@H]1O[C@H](CO)[C@@H](O)[C@H](O)[C@H]1O[C@@H]1O[C@@H](C)[C@H](O)[C@@H](O)[C@H]1O)C3 [Dulcoside A]	–	30
Baiyunoside	–	500
CC(C)=CCC[C@](C)(O)[C@@H]1CCC(C)=CC1=O [(+)-Hernandulcin]	–	1,500
COC(=O)[C@H]1O[C@@H](O[C@H]2[C@H](O[C@H]3CC[C@]45C[C@]46CC[C@]4(C)[C@@H]([C@H](C)[C@@H]7CC=C(C)C(=O)O7)CC[C@@]4(C)[C@@H]6CC[C@H]5[C@]3(C)C(=O)O)O[C@H](CO)[C@@H](O)[C@@H]2O)[C@H](O)[C@@H](O)[C@@H]1O [Abrusoside B]	–	100
O=S(=O)(O)ON=C(Cc1c[nH]c2ccccc12)S[C@@H]1O[C@H](CO)[C@@H](O)[C@H](O)[C@H]1O [Glucobrassicin]	Bitter	–
O=C/C=C/c1ccccc1 [Trans-Cinnamaldehyde]	–	50
COc1ccc(-c2cc(=O)c3c(OC)c(OC)c(OC)c(OC)c3o2)cc1OC [Nobiletin]	Bitter	–
C=CC1CNC(=S)O1 (stereo not shown) [Goitrin 5-vinyl-2-oxazolidine thione, 5-vinyl-2-oxazolidine thione]	Bitter	–
O=c1c(-c2ccc(O)cc2)coc2cc(O[C@@H]3O[C@H](CO)[C@@H](O)[C@H](O)[C@H]3O)cc(O)c12 [Genistin]	Astringent	–
CC1(C)O[C@H]2CC(=O)OC[C@]23[C@H]2CC[C@@](C)([C@@H](O[C@@H]4O[C@H](CO)[C@@H](O)[C@H](O)[C@H]4O)c4ccoc4)[C@@]4(O[C@@H]4C(=O)O)[C@]2(C)C(=O)C[C@@H]13 [Limonin glucoside]	Tasteless	–
COc1c(O)cc2c(c1O)C(=O)[C@H](OC(C)=O)[C@@H](c1ccc(O)cc1)O2 [(2R,3R)-2,3-Dihydro-5,7,4′-trihydroxy-6-methoxy-3-O-acetylflavonol]	–	20
CC[C@@H](C)C(=O)O[C@@H](C)[C@]1(O)CC[C@]2(O)[C@@H]3CC[C@H]4C[C@@H](O[C@@H]5C[C@H](O)[C@H](O[C@H]6C[C@H](OC)[C@H](O[C@H]7C[C@@H](OC)[C@H](O[C@H]8C[C@@H](OC)[C@H](O[C@@H]9O[C@H](C)[C@@H](O[C@@H]%10O[C@H](CO)[C@@H](O)[C@H](O)[C@H]%10O)[C@H](OC)[C@H]9O)[C@@H](C)O8)[C@@H](C)O7)[C@@H](C)O6)[C@@H](C)O5)CC[C@]4(C)[C@H]3C[C@@H](OC(C)=O)[C@]12C [Telosmoside A15]	–	1000
